These molecules were tested on rat (assay: Intake of 5% sucrose solution in rat model). Settings: intake of 5% sucrose solution in animal model (rat).
Format: in vivo
Source text: Compounds of the present invention in the cAMP accumulation model, antagonizes the WIN-55, 212-2 inhibition of forskolin-induced cAMP accumulation in hCB1-CHO cells [J Pharmacol. Exp Ther., 1998, 284, 291-297]. In a mouse vas deferens preparation, representative compounds cause rightward shift of the WIN-55, 212-2 concentration-response curve (Eur. J. Pharm. 1995, 284, 241-247). Representative compounds of the present invention have shown decrease in sucrose solution intake in rat model (Table 1) [Psychopharmacology, 1997, 132, 104-106].
In the case of `O=C(NN1CC2CCCC2C1)c1nn(-c2ccc(Cl)cc2Cl)c2c1CCOc1cc(Cl)ccc1-2` (centres unmarked) [Compound 5, 8-chloro-1-(2,4-dichloro-phenyl)-4,5-dihydro-1H-6-oxa-1,2-diaza-benzo [e] azulene-3-carboxylic acid (hexahydro-cyclopenta[c]pyrrol-2-yl)-amide], the “Reduction in sucrose solution consumption w.r.t. control animals” value (“Reduction” below) is reported as −23.2 ± 11.4.
For `O=C(NN1CCC(O)CC1)c1nn(-c2ccc(Cl)cc2Cl)c2c1CCOc1cc(Cl)ccc1-2` [Compound 3], the “Reduction” value was −18.9 ± 14.0.
For `O=C(NN1CCCCC1)c1nn(-c2ccc(Cl)cc2)c2c1CCOc1cc(Cl)ccc1-2` [Compound 8, 8-chloro-1-(4-chloro-phenyl)-4,5-dihydro-1H-6-oxa-1,2-diaza-benzo [e] azulene-3-carboxylic acid piperidin-1-ylamide], the “Reduction” value was −30.4 ± 4.3.
For `O=C(NN1CCCCC1)c1nn(-c2ccc(Cl)cc2Cl)c2c1CCCc1sc(Cl)cc1-2` [Compound 16], the “Reduction” value was −13.2 ± 15.7.
For `O=C(NN1CCOCC1)c1nn(-c2ccc(Cl)cc2Cl)c2c1CCOc1cc(Cl)ccc1-2` [Compound 6, 8-chloro-1-(2,4-dichloro-phenyl)-4,5-dihydro-1H-6-oxa-1,2-diaza-benzo [e] azulene-3-carboxylic acid morpholine-4-yl-amide], the “Reduction” value was −24.9 ± 8.9.

Source: patent US8030345B2, “Tricyclic pyrazole derivatives as cannabinoid receptor modulators” (Cadila Healthcare Limited, priority 2004, dated 2011)
